# Measurements taken from patent US8192962B2, “Processes for detecting toxic substances” (Daikin Industries, Ltd., priority 2001, dated 2012).
# Tested on: Genes belonging to other category
# Assay: DNA chip mRNA expression in yeast, genes belonging to other category (Table 9)
# Format: cell-based, Saccharomyces cerevisiae S288C
# In short: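 Untreated cultures served as reference for log-phase S288C yeast given a growth-inhibiting, non-lethal toxicant dose for 2 h at 25° C. in YPD. Gene expression was measured on a whole-genome DNA chip from Cy3/Cy5-labeled cDNA.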
structure (smiles),measurement,setting,value
"CN(C)C(=S)SSC(=S)N(C)C [(10), Tetramethylthiuram disulfide]",The level of expressed mRNA in the presence of chemical substance/The level of expressed mRNA in the absence of chemical substance,yeast gene YAR009C,1.4
same,The level of expressed mRNA in the presence of chemical substance/The level of expressed mRNA in the absence of chemical substance,yeast gene YAR010C,1.1
same,The level of expressed mRNA in the presence of chemical substance/The level of expressed mRNA in the absence of chemical substance,yeast gene YBL005W-A,1.5
same,The level of expressed mRNA in the presence of chemical substance/The level of expressed mRNA in the absence of chemical substance,yeast gene YBL041W,2.6
same,The level of expressed mRNA in the presence of chemical substance/The level of expressed mRNA in the absence of chemical substance,yeast gene YBL043W,14.7
same,The level of expressed mRNA in the presence of chemical substance/The level of expressed mRNA in the absence of chemical substance,yeast gene YBL078C,15.2
same,The level of expressed mRNA in the presence of chemical substance/The level of expressed mRNA in the absence of chemical substance,yeast gene YBL101C,1.4
same,The level of expressed mRNA in the presence of chemical substance/The level of expressed mRNA in the absence of chemical substance,yeast gene YBR010W,0.7
same,The level of expressed mRNA in the presence of chemical substance/The level of expressed mRNA in the absence of chemical substance,yeast gene YBR031W,1.0
same,The level of expressed mRNA in the presence of chemical substance/The level of expressed mRNA in the absence of chemical substance,yeast gene YBR170C,4.2
same,The level of expressed mRNA in the presence of chemical substance/The level of expressed mRNA in the absence of chemical substance,yeast gene YBR201W,1.0
same,The level of expressed mRNA in the presence of chemical substance/The level of expressed mRNA in the absence of chemical substance,yeast gene YBR214W,3.5
same,The level of expressed mRNA in the presence of chemical substance/The level of expressed mRNA in the absence of chemical substance,yeast gene YBR239C,1.2
same,The level of expressed mRNA in the presence of chemical substance/The level of expressed mRNA in the absence of chemical substance,yeast gene YBR286W,1.6
same,The level of expressed mRNA in the presence of chemical substance/The level of expressed mRNA in the absence of chemical substance,yeast gene YBR290W,1.8
same,The level of expressed mRNA in the presence of chemical substance/The level of expressed mRNA in the absence of chemical substance,yeast gene YCL020W,2.4
same,The level of expressed mRNA in the presence of chemical substance/The level of expressed mRNA in the absence of chemical substance,yeast gene YCL027W,16.3
same,The level of expressed mRNA in the presence of chemical substance/The level of expressed mRNA in the absence of chemical substance,yeast gene YCL033C,1.4
same,The level of expressed mRNA in the presence of chemical substance/The level of expressed mRNA in the absence of chemical substance,yeast gene YCR004C,2.1
same,The level of expressed mRNA in the presence of chemical substance/The level of expressed mRNA in the absence of chemical substance,yeast gene YCR062W,1.3
same,The level of expressed mRNA in the presence of chemical substance/The level of expressed mRNA in the absence of chemical substance,yeast gene YCR071C,1.2
same,The level of expressed mRNA in the presence of chemical substance/The level of expressed mRNA in the absence of chemical substance,yeast gene YCR088W,0.9
same,The level of expressed mRNA in the presence of chemical substance/The level of expressed mRNA in the absence of chemical substance,yeast gene YCR091W,1.2
same,The level of expressed mRNA in the presence of chemical substance/The level of expressed mRNA in the absence of chemical substance,yeast gene YDL008W,3.0
same,The level of expressed mRNA in the presence of chemical substance/The level of expressed mRNA in the absence of chemical substance,yeast gene YDL097C,2.3
same,The level of expressed mRNA in the presence of chemical substance/The level of expressed mRNA in the absence of chemical substance,yeast gene YDL238C,2.7
same,The level of expressed mRNA in the presence of chemical substance/The level of expressed mRNA in the absence of chemical substance,yeast gene YDR055W,2.4
same,The level of expressed mRNA in the presence of chemical substance/The level of expressed mRNA in the absence of chemical substance,yeast gene YDR080W,2.6
same,The level of expressed mRNA in the presence of chemical substance/The level of expressed mRNA in the absence of chemical substance,yeast gene YDR084C,0.6
same,The level of expressed mRNA in the presence of chemical substance/The level of expressed mRNA in the absence of chemical substance,yeast gene YDR085C,2.3
same,The level of expressed mRNA in the presence of chemical substance/The level of expressed mRNA in the absence of chemical substance,yeast gene YDR104C,2.7
same,The level of expressed mRNA in the presence of chemical substance/The level of expressed mRNA in the absence of chemical substance,yeast gene YDR115W,1.0
same,The level of expressed mRNA in the presence of chemical substance/The level of expressed mRNA in the absence of chemical substance,yeast gene YDR169C,1.4
same,The level of expressed mRNA in the presence of chemical substance/The level of expressed mRNA in the absence of chemical substance,yeast gene YDR188W,1.6
same,The level of expressed mRNA in the presence of chemical substance/The level of expressed mRNA in the absence of chemical substance,yeast gene YDR259C,1.8
same,The level of expressed mRNA in the presence of chemical substance/The level of expressed mRNA in the absence of chemical substance,yeast gene YDR264C,3.4
same,The level of expressed mRNA in the presence of chemical substance/The level of expressed mRNA in the absence of chemical substance,yeast gene YDR276C,2.7
same,The level of expressed mRNA in the presence of chemical substance/The level of expressed mRNA in the absence of chemical substance,yeast gene YDR315C,1.6
same,The level of expressed mRNA in the presence of chemical substance/The level of expressed mRNA in the absence of chemical substance,yeast gene YDR329C,1.0
same,The level of expressed mRNA in the presence of chemical substance/The level of expressed mRNA in the absence of chemical substance,yeast gene YDR358W,3.2
same,The level of expressed mRNA in the presence of chemical substance/The level of expressed mRNA in the absence of chemical substance,yeast gene YDR378C,1.3
same,The level of expressed mRNA in the presence of chemical substance/The level of expressed mRNA in the absence of chemical substance,yeast gene YDR388W,0.9
same,The level of expressed mRNA in the presence of chemical substance/The level of expressed mRNA in the absence of chemical substance,yeast gene YDR427W,2.0
same,The level of expressed mRNA in the presence of chemical substance/The level of expressed mRNA in the absence of chemical substance,yeast gene YDR432W,0.8
same,The level of expressed mRNA in the presence of chemical substance/The level of expressed mRNA in the absence of chemical substance,yeast gene YDR481C,1.6
same,The level of expressed mRNA in the presence of chemical substance/The level of expressed mRNA in the absence of chemical substance,yeast gene YDR505C,1.0
same,The level of expressed mRNA in the presence of chemical substance/The level of expressed mRNA in the absence of chemical substance,yeast gene YDR510W,2.5
same,The level of expressed mRNA in the presence of chemical substance/The level of expressed mRNA in the absence of chemical substance,yeast gene YDR515W,2.7
same,The level of expressed mRNA in the presence of chemical substance/The level of expressed mRNA in the absence of chemical substance,yeast gene YEL012W,4.2
same,The level of expressed mRNA in the presence of chemical substance/The level of expressed mRNA in the absence of chemical substance,yeast gene YEL042W,0.3
same,The level of expressed mRNA in the presence of chemical substance/The level of expressed mRNA in the absence of chemical substance,yeast gene YEL066W,2.4
same,The level of expressed mRNA in the presence of chemical substance/The level of expressed mRNA in the absence of chemical substance,yeast gene YER009W,1.0
same,The level of expressed mRNA in the presence of chemical substance/The level of expressed mRNA in the absence of chemical substance,yeast gene YER012W,2.7
same,The level of expressed mRNA in the presence of chemical substance/The level of expressed mRNA in the absence of chemical substance,yeast gene YER039C,0.8
same,The level of expressed mRNA in the presence of chemical substance/The level of expressed mRNA in the absence of chemical substance,yeast gene YER076C,1.2
same,The level of expressed mRNA in the presence of chemical substance/The level of expressed mRNA in the absence of chemical substance,yeast gene YER107C,0.5
same,The level of expressed mRNA in the presence of chemical substance/The level of expressed mRNA in the absence of chemical substance,yeast gene YER130C,1.3
same,The level of expressed mRNA in the presence of chemical substance/The level of expressed mRNA in the absence of chemical substance,yeast gene YFL022C,0.5
same,The level of expressed mRNA in the presence of chemical substance/The level of expressed mRNA in the absence of chemical substance,yeast gene YFL028C,1.8
same,The level of expressed mRNA in the presence of chemical substance/The level of expressed mRNA in the absence of chemical substance,yeast gene YFL043C,3.8
same,The level of expressed mRNA in the presence of chemical substance/The level of expressed mRNA in the absence of chemical substance,yeast gene YFR004W,2.6
same,The level of expressed mRNA in the presence of chemical substance/The level of expressed mRNA in the absence of chemical substance,yeast gene YFR014C,1.6
same,The level of expressed mRNA in the presence of chemical substance/The level of expressed mRNA in the absence of chemical substance,yeast gene YFR050C,2.1
same,The level of expressed mRNA in the presence of chemical substance/The level of expressed mRNA in the absence of chemical substance,yeast gene YGL158W,0.9
same,The level of expressed mRNA in the presence of chemical substance/The level of expressed mRNA in the absence of chemical substance,yeast gene YGL180W,3.7
same,The level of expressed mRNA in the presence of chemical substance/The level of expressed mRNA in the absence of chemical substance,yeast gene YGL185C,2.3
same,The level of expressed mRNA in the presence of chemical substance/The level of expressed mRNA in the absence of chemical substance,yeast gene YGL229C,1.7
same,The level of expressed mRNA in the presence of chemical substance/The level of expressed mRNA in the absence of chemical substance,yeast gene YGR120C,1.2
same,The level of expressed mRNA in the presence of chemical substance/The level of expressed mRNA in the absence of chemical substance,yeast gene YGR136W,2.2
same,The level of expressed mRNA in the presence of chemical substance/The level of expressed mRNA in the absence of chemical substance,yeast gene YGR189C,0.9
same,The level of expressed mRNA in the presence of chemical substance/The level of expressed mRNA in the absence of chemical substance,yeast gene YGR213C,6.9
same,The level of expressed mRNA in the presence of chemical substance/The level of expressed mRNA in the absence of chemical substance,yeast gene YGR248W,3.2
same,The level of expressed mRNA in the presence of chemical substance/The level of expressed mRNA in the absence of chemical substance,yeast gene YGR257C,1.9
same,The level of expressed mRNA in the presence of chemical substance/The level of expressed mRNA in the absence of chemical substance,yeast gene YHR004C,0.6
same,The level of expressed mRNA in the presence of chemical substance/The level of expressed mRNA in the absence of chemical substance,yeast gene YHR071W,7.2
same,The level of expressed mRNA in the presence of chemical substance/The level of expressed mRNA in the absence of chemical substance,yeast gene YHR109W,1.8
same,The level of expressed mRNA in the presence of chemical substance/The level of expressed mRNA in the absence of chemical substance,yeast gene YHR136C,2.0
same,The level of expressed mRNA in the presence of chemical substance/The level of expressed mRNA in the absence of chemical substance,yeast gene YHR139C,46.6
same,The level of expressed mRNA in the presence of chemical substance/The level of expressed mRNA in the absence of chemical substance,yeast gene YHR142W,0.9
same,The level of expressed mRNA in the presence of chemical substance/The level of expressed mRNA in the absence of chemical substance,yeast gene YHR161C,2.0
same,The level of expressed mRNA in the presence of chemical substance/The level of expressed mRNA in the absence of chemical substance,yeast gene YIL034C,1.3
same,The level of expressed mRNA in the presence of chemical substance/The level of expressed mRNA in the absence of chemical substance,yeast gene YIL123W,0.2
same,The level of expressed mRNA in the presence of chemical substance/The level of expressed mRNA in the absence of chemical substance,yeast gene YIL140W,0.6
same,The level of expressed mRNA in the presence of chemical substance/The level of expressed mRNA in the absence of chemical substance,yeast gene YJL035C,1.4
same,The level of expressed mRNA in the presence of chemical substance/The level of expressed mRNA in the absence of chemical substance,yeast gene YJL059W,1.6
same,The level of expressed mRNA in the presence of chemical substance/The level of expressed mRNA in the absence of chemical substance,yeast gene YJL073W,0.7
same,The level of expressed mRNA in the presence of chemical substance/The level of expressed mRNA in the absence of chemical substance,yeast gene YJL089W,3.9
same,The level of expressed mRNA in the presence of chemical substance/The level of expressed mRNA in the absence of chemical substance,yeast gene YJL116C,2.6
same,The level of expressed mRNA in the presence of chemical substance/The level of expressed mRNA in the absence of chemical substance,yeast gene YJL141C,1.3
same,The level of expressed mRNA in the presence of chemical substance/The level of expressed mRNA in the absence of chemical substance,yeast gene YJR004C,0.7
same,The level of expressed mRNA in the presence of chemical substance/The level of expressed mRNA in the absence of chemical substance,yeast gene YJR049C,1.4
